Data: US20180037568A1, “MODULATORS OF METHYL MODIFYING ENZYMES, COMPOSITIONS AND USES THEREOF” (Constellation Pharmaceuticals, Inc., priority 2015, published 2018)
Where two headings read alike, the source gives them in different places.

Columns and labels:
EZH2 = EZH2 (Homo sapiens, UniProt Q15910); test: EZH2 nuc BSA Brij 1.5 (IC50): rPRC2, biotinylated oligonucleosome substrate, 3H SAM FlashPlate; format: biochemical
Protocol: EZH2 Nuc BSA Brij 1.5 (IC50):
Assays were carried out by mixing rPRC2 together with biotinylated oligonucleosome substrates in the presence of the radio-labeled enzyme co-factor, S-adenosyl-L-methionine (^3H SAM) (Perkin Elmer) and monitoring the enzymatically mediated transfer of tritiated methyl groups from ^3H SAM to histone lysine residues. The amount of resulting tritiated methyl histone product was measured by first capturing the biotinylated oligonucleosomes in streptavidin (SAV) coated FlashPlates (Perkin Elmer), followed by a wash step to remove un-reacted ^3H SAM, and then counting on a TopCount NXT 384 well plate scintillation counter (Perkin Elmer). The final assay conditions for EZH2 were as follows: 50 mM Tris Buffer pH 8.5, 1 mM DTT, 69 μM Brij-35 detergent, 5.0 mM MgCl2, 0.1 mg/mL BSA, 0.2 μM ^3H SAM, 0.2 μM biotinylated oligonucleosomes, 3.6 μM H3K27me3 peptide and 2 nM EZH2.
Compound IC50 Measurements were Obtained as Follows:
Compounds were first dissolved in 100% DMSO as 10 mM stock solutions. Ten point dose response curves were generated by dispensing varying amounts of the 10 mM compound solution in 10 wells of the 384 well plate (Echo; Labcyte), pure DMSO was then used to backfill the wells to insure all wells have the same amount of DMSO. A 12.5 μL volume of the HMT enzyme, H3K27me3 peptide and oligonucleosome substrate in assay buffer was added to each well of the assay plate using a Multidrop Combi (ThermoFisher). Compounds were pre-incubated with the enzyme for 20 min, followed by initiation of the methyltransferase reaction by addition of 12.5 μL of ^3H SAM in assay buffer (final volume=25 μL). The final concentrations of compounds ranged from a top default concentration of 80 μM down to 0.16 μM in ten 2-fold dilution steps. Reactions were carried out for 60 minutes and quenched with 20 μL per well of 1.96 mM SAH, 50 mM Tris pH 8.5, 200 mM EDTA. Stopped reactions were transferred to SAV coated Flashplates (Perkin Elmer), incubated for 120 min, washed with a plate washer, and then read on the TopCount NXT (1.0 min/well) to measure the amount of methyl histone product formed during the reaction. The amount of methyl histone product was compared with the amount of product formed in the 0% and 100% inhibition control wells allowing the calculation of % Inhibition in the presence of the individual compounds at various concentrations. IC50's were computed using a 4 parameter fit non-linear curve fitting software package (XLFIT, part of the database package, ActivityBase (IDBS)) where the four parameters were IC50, Hill slope, pre-transitional baseline (0% INH), and post-transitional baseline (100% INH); with the latter two parameters being fixed to zero and 100%, respectively, by default.

H3K27me3 mark = test: H3K27me3 Alpha Hela Assay (AlphaLISA); format: cell-based; conditions: Hela cells, read-out: EZH2 Cell H3K27me3 Alpha HeLa (EC50 K27me3)
Protocol: EC50 Measurements for Inhibitors in HeLa Cell Assays
H3K27me3 Alpha Hela Assay (AlphaLISA). Ten different doses of each test compound (in a series of 3-fold dilutions) were plated in duplicate 384-well tissue culture treated plates (Catalog #781080; Greiner Bio One; Monroe, N.C.). Hela cells grown in culture were trypsinized and counted using a Countess® cell counter (Catalog # C10281; Life Technologies, Grand Island, N.Y.). Cell were diluted to 67,000 cells per mL in 10% DMEM (Catalog #10569-010 Life Technologies, Grand Island, N.Y.) and 15 μL (1,000 cells) were plated into each well using the Biotek MicroFlo™ Select Dispenser (BioTek Instruments, Inc. Vermont, USA),) of the 384-well plate. Plates were incubated at 37° C./5% CO2 for 72 hrs. One of the duplicate plates was processed for HeLa assay and the other for viability.
To the plate processed for AlphaLISA was added 5 μL per well Cell-Histone Lysis buffer (1×) (Catalog # AL009F1 Perkin Elmer; Waltham, Mass.) and the plate was incubated at RT for 30 minutes on a plate shaker with low speed (Model#4625-Q Thermo Scientific; Waltham, Mass.). Then, 10 μL per well Histone Extraction buffer (catalog # AL009F2; Perkin Elmer; Waltham, Mass.) was added and the plate further incubated at RT for 20 min on plate shaker with low speed. To each well was then added 10 μL per well of a 5× mix of anti-K27me3 acceptor beads plus Biotinylated anti-Histone H3 (C-ter) Antibody (diluted to 3 nM final) (Catalog #AL118 Perkin Elmer; Waltham, Mass.). Dilution of the acceptor beads and then anti-Histone H3 was with 1× Histone Detection buffer (Catalog # AL009F3 Perkin Elmer; Waltham, Mass.) which was produced diluted from the 10× stock provided. The plate was sealed with an aluminum plate sealer and incubated at 23° C. for 60 min. We then added 10 μL 5× solution of Streptavidin Donor beads (Catalog #6760002 Perkin Elmer; Waltham, Mass.) (20 μg/mL final in 1× Histone Detection Buffer), sealed the plate with Aluminum plate sealer and incubated at 23° C. for 30 min. The plates were then read using an EnVision-Alpha Reader (model #2104 Perkin Elmer; Waltham, Mass.).
Data from both assays was analyzed using Assay Assistant (Constellation Pharmaceuticals In-house product) and Activity Base (IDBS Ltd, Surrey, UK) template. Data files were imported to Assay Assistant and assay conditions were specified. A unique Analysis ID was created and the data files exported to Activity Base. An analysis template was created on Activity Base to measure dose-dependent inhibition of H3K27me3 mark and cell viability respectively. Readout of DMSO wells were used to normalize the data. Resulting curves were fitted using Activity base software Model 205 (IDBS Ltd, Surrey, UK). The data was checked for quality, validated and integrated in excel format using SARview (IDBS Ltd, Surrey, UK).

[1] = EZH2 nuc BSA Brij 1.5 (IC50), 2 nM EZH2, 0.2 μM biotinylated oligonucleosomes, 0.2 μM 3H SAM, 3.6 μM H3K27me3 peptide
[2] = read-out: EZH2 nuc BSA Brij 1.5 (IC50); 2 nM EZH2, 0.2 μM biotinylated oligonucleosomes, 0.2 μM 3H SAM, 3.6 μM H3K27me3 peptide

Chain of EZH2 (Q15910 whole entry): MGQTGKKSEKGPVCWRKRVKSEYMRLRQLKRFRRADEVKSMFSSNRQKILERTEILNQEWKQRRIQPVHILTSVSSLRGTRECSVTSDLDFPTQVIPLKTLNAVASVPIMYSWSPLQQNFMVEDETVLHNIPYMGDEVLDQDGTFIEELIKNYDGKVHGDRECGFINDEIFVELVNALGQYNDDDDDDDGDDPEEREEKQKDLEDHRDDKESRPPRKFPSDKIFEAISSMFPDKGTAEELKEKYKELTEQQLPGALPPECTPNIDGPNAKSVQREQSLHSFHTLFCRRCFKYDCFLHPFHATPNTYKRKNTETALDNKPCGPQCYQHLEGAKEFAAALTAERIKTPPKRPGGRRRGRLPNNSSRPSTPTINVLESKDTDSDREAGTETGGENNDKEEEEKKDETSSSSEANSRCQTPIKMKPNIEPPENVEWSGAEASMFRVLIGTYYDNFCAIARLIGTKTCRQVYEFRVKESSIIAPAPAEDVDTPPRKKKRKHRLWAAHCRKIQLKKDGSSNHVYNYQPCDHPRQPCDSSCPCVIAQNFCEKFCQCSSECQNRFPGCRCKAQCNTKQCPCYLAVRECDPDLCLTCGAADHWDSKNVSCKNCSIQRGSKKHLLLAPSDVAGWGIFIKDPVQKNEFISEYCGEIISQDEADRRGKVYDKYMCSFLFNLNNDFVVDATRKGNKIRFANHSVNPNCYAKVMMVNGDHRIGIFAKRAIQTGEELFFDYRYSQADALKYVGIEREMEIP
Chain of EZH2 (O75530 whole entry partner): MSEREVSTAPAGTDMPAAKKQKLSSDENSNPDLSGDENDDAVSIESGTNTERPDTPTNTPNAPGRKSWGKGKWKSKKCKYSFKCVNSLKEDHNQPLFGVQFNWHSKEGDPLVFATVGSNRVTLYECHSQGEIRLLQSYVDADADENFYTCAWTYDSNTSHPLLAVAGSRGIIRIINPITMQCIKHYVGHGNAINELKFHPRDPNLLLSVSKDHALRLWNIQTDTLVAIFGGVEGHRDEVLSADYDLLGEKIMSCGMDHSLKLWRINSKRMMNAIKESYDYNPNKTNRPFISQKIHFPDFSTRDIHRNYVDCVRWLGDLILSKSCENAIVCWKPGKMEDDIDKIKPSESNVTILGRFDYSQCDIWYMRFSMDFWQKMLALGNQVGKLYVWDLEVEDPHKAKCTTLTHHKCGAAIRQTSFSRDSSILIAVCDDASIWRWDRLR
Chain of EZH2 (Q15022 whole entry partner): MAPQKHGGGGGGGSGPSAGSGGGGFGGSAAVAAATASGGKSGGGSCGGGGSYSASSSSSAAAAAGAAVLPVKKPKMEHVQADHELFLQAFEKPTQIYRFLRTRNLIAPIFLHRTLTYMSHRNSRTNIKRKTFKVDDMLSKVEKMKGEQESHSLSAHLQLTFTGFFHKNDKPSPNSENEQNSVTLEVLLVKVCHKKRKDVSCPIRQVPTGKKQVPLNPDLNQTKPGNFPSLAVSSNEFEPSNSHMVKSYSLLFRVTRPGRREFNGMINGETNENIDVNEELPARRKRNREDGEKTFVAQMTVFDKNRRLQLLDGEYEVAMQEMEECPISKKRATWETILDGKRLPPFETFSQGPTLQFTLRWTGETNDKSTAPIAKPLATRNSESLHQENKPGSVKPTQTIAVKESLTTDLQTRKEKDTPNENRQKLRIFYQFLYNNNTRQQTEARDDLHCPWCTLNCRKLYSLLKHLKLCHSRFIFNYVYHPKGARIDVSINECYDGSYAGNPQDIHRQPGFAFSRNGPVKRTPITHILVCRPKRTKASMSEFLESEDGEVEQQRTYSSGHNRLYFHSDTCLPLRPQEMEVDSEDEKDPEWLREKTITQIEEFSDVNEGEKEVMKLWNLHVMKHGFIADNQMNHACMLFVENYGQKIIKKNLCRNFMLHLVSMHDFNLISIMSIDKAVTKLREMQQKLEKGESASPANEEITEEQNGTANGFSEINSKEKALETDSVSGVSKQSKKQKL

SMILES	IC50 (EZH2; [1])	EC50 (H3K27me3 mark; 72 hrs)	IC50 (EZH2; 2 nM EZH2, 0.2 μM biotinylated oligonucleosomes, 0.2 μM 3H SAM, 3.6 μM H3K27me3 peptide; read-out: EZH2 nuc BSA Brij 1.5 (IC50))	IC50 (EZH2; [2])	EC50 (H3K27me3 mark; Homo sapiens, HeLa, 72 h)
COc1cc(C)[nH]c(=O)c1CNC(=O)c1c(C)n(C(C)C2CCNC(C(F)(F)F)C2)c2ccccc12 (single isomer, unassigned) [Compound 20, N-((4-methoxy-6-methyl-2-oxo-1,2-dihydropyridin-3-yl)methyl)-2-methyl-1-(1-(2-(trifluoromethyl)piperidin-4-yl)ethyl)-1H-indole-3-carboxamide]	< 100 nM	400 to 2000 nM			
COc1cc(C)[nH]c(=O)c1CNC(=O)c1c(C)n(C(C)C2CCNC(C(F)(F)F)C2)c2ccccc12 (single isomer, unassigned) [Compound 22, N-((4-methoxy-6-methyl-2-oxo-1,2-dihydropyridin-3-yl)methyl)-2-methyl-1-(1-(2-(trifluoromethyl)piperidin-4-yl)ethyl)-1H-indole-3-carboxamide]	< 100 nM	400 to 2000 nM			
COc1cc(C)[nH]c(=O)c1CNC(=O)c1c(C)n(C(C)C2CCNC(C(F)(F)F)C2)c2ccccc12 (single isomer, unassigned) [Compound 23, N-((4-methoxy-6-methyl-2-oxo-1,2-dihydropyridin-3-yl)methyl)-2-methyl-1-(1-(2-(trifluoromethyl)piperidin-4-yl)ethyl)-1H-indole-3-carboxamide]	100 to 1000 nM	> 2000 nM			
COc1cc(C)[nH]c(=O)c1CNC(=O)c1c(C)n(C(C)C2CCNC(c3ccc(F)cc3)C2)c2ccccc12 (single isomer, unassigned) [Compound 32, 1-(1-(2-(4-fluorophenyl)piperidin-4-yl)ethyl)-N-((4-methoxy-6-methyl-2-oxo-1,2-dihydropyridin-3-yl)methyl)-2-methyl-1H-indole-3-carboxamide]		> 2000 nM	< 100 nM		
COc1cc(C)[nH]c(=O)c1CNC(=O)c1c(C)n(C(C)C2CCNC(C(F)F)C2)c2ccccc12 (single isomer, unassigned) [Compound 36, 1-(1-(2-(difluoromethyl)piperidin-4-yl)ethyl)-N-((4-methoxy-6-methyl-2-oxo-1,2-dihydropyridin-3-yl)methyl)-2-methyl-1H-indole-3-carboxamide]	< 100 nM	> 2000 nM			
COc1cc(C)[nH]c(=O)c1CNC(=O)c1c(C)n(C(C)C2CCNC(C(F)F)C2)c2ccccc12 (single isomer, unassigned) [Compound 37, 1-(1-(2-(difluoromethyl)piperidin-4-yl)ethyl)-N-((4-methoxy-6-methyl-2-oxo-1,2-dihydropyridin-3-yl)methyl)-2-methyl-1H-indole-3-carboxamide]		400 to 2000 nM		< 100 nM	
COc1cc(C)[nH]c(=O)c1CNC(=O)c1c(C)n(C(C)C2CCN(CC3CC3)C(C(F)(F)F)C2)c2ccccc12 (single isomer, unassigned) [Compound 38, 1-(1-(1-(cyclopropylmethyl)-2-(trifluoromethyl)piperidin-4-yl)ethyl)-N-((4-methoxy-6-methyl-2-oxo-1,2-dihydropyridin-3-yl)methyl)-2-methyl-1H-indole-3-carboxamide]	< 100 nM				> 2000 nM
COc1cc(C)[nH]c(=O)c1CNC(=O)c1c(C)n(C(C)C2CCN(CC3CC3)C(C(F)(F)F)C2)c2ccccc12 (single isomer, unassigned) [Compound 39, 1-(1-(1-(cyclopropylmethyl)-2-(trifluoromethyl)piperidin-4-yl)ethyl)-N-((4-methoxy-6-methyl-2-oxo-1,2-dihydropyridin-3-yl)methyl)-2-methyl-1H-indole-3-carboxamide]		> 2000 nM		< 100 nM	
COc1cc(C)[nH]c(=O)c1CNC(=O)c1c(C)n(C(C)C2CCN(CC(F)F)C(C)C2)c2ccccc12 (single isomer, unassigned) [Compound 41, 1-(1-(1-(2,2-difluoroethyl)-2-methylpiperidin-4-yl)ethyl)-N-((4-methoxy-6-methyl-2-oxo-1,2-dihydropyridin-3-yl)methyl)-2-methyl-1H-indole-3-carboxamide]		< 400 nM		< 100 nM	
COc1cc(C)[nH]c(=O)c1CNC(=O)c1c(C)n(C(C)C2CCN(CC(F)(F)F)C(C)C2)c2ccccc12 (single isomer, unassigned) [Compound 42, N-((4-methoxy-6-methyl-2-oxo-1,2-dihydropyridin-3-yl)methyl)-2-methyl-1-(1-(2-methyl-1-(2,2,2-trifluoroethyl)piperidin-4-yl)ethyl)-1H-indole-3-carboxamide]	< 100 nM				400 to 2000 nM
COc1cc(C)[nH]c(=O)c1CNC(=O)c1c(C)n(C(C)C2CCNC3CCCCC32)c2ccccc12 (centres unmarked) [Compound 4, 1-(1-(decahydroquinolin-4-yl)ethyl)-N-((4-methoxy-6-methyl-2-oxo-1,2-dihydropyridin-3-yl)methyl)-2-methyl-1H-indole-3-carboxamide]	< 100 nM				> 2000 nM
COc1cc(C)[nH]c(=O)c1CNC(=O)c1c(C)n(C(C)C2CCN(C)C(=O)C2)c2ccccc12 (centres unmarked) [Compound 11, N-((4-methoxy-6-methyl-2-oxo-1,2-dihydropyridin-3-yl)methyl)-2-methyl-1-(1-(1-methyl-2-oxopiperidin-4-yl)ethyl)-1H-indole-3-carboxamide]	< 100 nM				> 2000 nM
COc1cc(C)[nH]c(=O)c1CNC(=O)c1c(C)n(C(C)C2CCNCC2C(F)(F)F)c2ccccc12 (centres unmarked) [Compound 19, N-((4-methoxy-6-methyl-2-oxo-1,2-dihydropyridin-3-yl)methyl)-2-methyl-1-(1-(3-(trifluoromethyl)piperidin-4-yl)ethyl)-1H-indole-3-carboxamide]	< 100 nM				> 2000 nM
